Earlier results in patent KR20140119363A, “보리코나졸이 함유된 안정화된 조성물” (에스케이케미칼주식회사, priority 2013, dated 2014).

Experiments:
[1] = degradation product triazole acetophenone formed
[2] = test system: deep-seated mycosis [심재성 진균증]
[3] = in vivo

## C[C@@H](c1ncncc1F)[C@](O)(Cn1cncn1)c1ccc(F)cc1F [보리코나졸]
[1]
  stability to moisture and heat: 수분 및 열에 불안정

## C[C@@H]1[C@H](O)[C@@H](C)/C=C/C=C/C=C/C=C/C=C/C=C/C=C/[C@H](O[C@@H]2O[C@H](C)[C@@H](O)[C@H](N)[C@@H]2O)C[C@@H]2O[C@](O)(C[C@@H](O)C[C@@H](O)[C@H](O)CC[C@@H](O)C[C@@H](O)CC(=O)O[C@H]1C)C[C@H](O)[C@H]2C(=O)O [암포테리신 B]
[2]; overall average
  response rate: ~34%
[3]
  nephrotoxicity: 심각한 문제

## CCC(C)n1ncn(-c2ccc(N3CCN(c4ccc(OCC5COC(Cn6cncn6)(c6ccc(Cl)cc6Cl)O5)cc4)CC3)cc2)c1=O (stereo not shown) [이트라코나졸]
[2]; in vivo
  treatment success rate: 그다지 높지 않은
